pIC50: −log10 of the molar value.
Tests used:
[1] = target: T1, full-length P-Rex1 (Homo sapiens, UniProt Q8TCU6); test: Liposome-based GEF activity assay, PIP3-stimulated full-length P-Rex1; assay type: biochemical; conditions: 200 µM, pilot experiments, EE-Rac2 substrate
T1 construct: Full-length N-terminally EE-tagged P-Rex1, P-Rex2, the P-Rex1 DH and DHPH domains and the P-Rex2 DH domain were produced in Sf9 cells; made in house; host or cells: Sf9 cells (baculovirus)
Excerpt: All small GTPases and GEFs used were human recombinant proteins. EE-Rac1, EE-Rac2, GST-Cdc42 or GST-RhoA were expressed in Sf9 cells by baculoviral transduction and purified using their epitope tag in their post-translationally prenylated form using Triton X-114 phase separation, essentially as previously described. Briefly, frozen pellets from a 1 litre culture of Sf9 cells transduced with high-titre baculovirus expressing the small GTPase were resuspended in ice-cold Sf9-cell lysis buffer 1 (1x PBS, 40 mM HEPES pH 7.5 at RT, 5 mM MgCl2, 10 mM EGTA, 300 µM GDP, 1 mM DTT, 200 µM PMSF, 20 μg/ml each of leupeptin, pepstatin A, aprotinin and antipain) and lysed by sonication. Triton X-114 was added (to 1% final concentration), and samples were ultracentrifuged at 118,000 × g for 50 min at 4°C. The supernatant was warmed at 37°C until cloudy (30–60 seconds) and centrifuged at 1300 × g for 2 min at 37°C. The upper phase containing non-lipid modified GTPase was discarded and replaced with ice-cold Sf9-cell lysis buffer. The warming/centrifugation steps were repeated twice and lipid-modified GTPase resuspended in ice-cold Sf9-cell lysis buffer 1 supplemented with Triton X-100 (1% final concentration), followed by ultracentrifugation at 118,000 × g for 50 min at 4°C. For EE-tagged GTPases, supernatants were incubated with anti-EE antibody covalently coupled to protein G-Sepharose beads (anti-EE beads, Onyx Pharmaceuticals) and incubated with end-over-end rotation for 90 min on ice. Beads were washed 3 times in wash buffer (PBS, 5 mM MgCl2, 1 mM DTT, 10 μM GDP, 1 mM EGTA, 0.2% Triton X-100) and 5x in elution buffer (40 mM HEPES pH 7.5, 150 mM NaCl, 5 mM MgCl2, 1 mM EGTA, 1 mM DTT, 10 µM GDP). Protein was eluted by three incubations with elution buffer containing peptide Ac-EEYMPME (Activotec, Comberton, UK) and cholate (first 1%, then twice 0.5%) for 20 min on ice. For GST-tagged GTPases, supernatants were incubated with glutathione Sepharose beads and were eluted with glutathione in the same manner. Proteins were concentrated in a YM-10 Centricon (Millipore) at 5000 × g, 4°C. Protein concentration and purity was determined by coomassie staining of SDS-PAGE gels. For use in the mant-GTP assay, EE-Rac 1 was expressed in BL21 (DE3) bacteria (NEB, C25271), by induction with 0.5 mM IPTG overnight at 18°C. Bacterial pellets from 500 ml cultures were resuspended in 20 ml bacterial lysis buffer (40 mM Hepes, pH 7.5 at 4°C, 150 mM NaCl, 1% Triton X-100, 5 mM MgCl2, 1 mM DTT, 300 μM GDP, 200 µM PMSF, and 20 μg/ml each of leupeptin, pepstatin A, aprotinin and antipain) and were lysed by sonication. 5 μg/ml DNAse and 5 μg/ml RNAse were added and the lysate incubated on ice for 10 min. […]

[2] = system: HEK-293 cells; test: Cell cycle stages by propidium iodide flow cytometry; assay type: cell-based; conditions: 24 h treatment, 10 µM
Experimental: Human embryonic kidney 293 (HEK-293) cells were grown at 37°C in a humidified 5% CO2 atmosphere in Dulbecco’s modified Eagle medium (DMEM, Gibco) supplemented with 10% foetal bovine serum (FBS), 100 units/ml penicillin and 100 µg/ml streptomycin. Cells were passaged by tryptic digest 1:4 approximately every 2 days. To measure cell cycle stages, 2 ml HEK293 cells were plated per well of a 6-well dish (Thermo Scientific, Nunc) at 10^5 cells/ml. After 24 h, the medium was replaced with fresh medium containing various concentrations of PREX-in1, as indicated, or 10 μM NSC23766, or vehicle control (0.1% DMSO), and cells were incubated for a further 24 h. The medium was removed but kept aside to recover any detached cells. Wells were washed with PBS, and cells recovered by trypsinization. Cell suspensions were pooled with the culture supernatant and centrifuged at 433 × g for 5 min at RT. Cells were washed in PBS, resuspended in ice-cold 70% ethanol/PBS, and incubated for 30 min at 4°C for fixation and permeabilization. Cells were washed once more in PBS, then stained with 50 µg/ml propidium iodide in PBS containing 100 µg/ml RNase for 30 min at 37°C. Cells were analysed by flow cytometry for the intensity of propidium iodide staining using a FACSCalibur flow cytometer. 10,000 cells were analysed per sample. Data analysis was done using FloJo software.

[3] = system: TrioN; parameters: method as in PMID 15128949; conditions: cited from earlier work
[4] = system: Tiam1; parameters: method as in PMID 15128949; conditions: cited from earlier work
[5] = target: T2, P-Rex1 DHPH domain (Homo sapiens, UniProt Q8TCU6); test: Mant-GTP GEF activity assay; assay type: biochemical; conditions: 10 µM
T2 construct: 100 nM EE-P-Rex1 DHPH domains (PREX-in1, compounds 2–10 and 30–128); made in house; host or cells: Sf9 cells (baculovirus)
T2 sequence (Q8TCU6 49-392 limits assumed): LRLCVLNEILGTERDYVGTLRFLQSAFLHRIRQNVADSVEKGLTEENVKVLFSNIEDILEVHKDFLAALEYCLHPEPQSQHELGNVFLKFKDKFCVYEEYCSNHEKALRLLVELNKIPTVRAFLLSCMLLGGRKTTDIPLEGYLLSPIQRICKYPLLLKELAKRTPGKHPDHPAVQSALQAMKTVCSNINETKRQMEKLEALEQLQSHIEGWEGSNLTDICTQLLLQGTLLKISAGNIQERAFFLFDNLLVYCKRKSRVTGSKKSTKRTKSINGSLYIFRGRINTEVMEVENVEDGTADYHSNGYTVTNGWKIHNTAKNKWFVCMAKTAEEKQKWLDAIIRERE
Experimental: The mant-GTP GEF activity assay measures the binding of fluorescent 2’/3’-O-(N-Methyl-anthraniloyl)-guanosine-5’-triphosphate (mant)-GTP to Rac, making use of the spectroscopic differences between bound and free mant-GTP. P-Rex1 DHPH domain protein was diluted to 375 nM in exchange buffer (20 mM Tris, pH 7.5 RT, 50 mM NaCl, 200 mM KCl, 4 mM MgCl2, 50 μg/ml fatty-acid-free BSA). The inhibitors PREX-in1 or EHop-016 were diluted to various concentrations in exchange buffer containing 15% DMSO. 4.4 µl P-Rex1 DHPH domain protein were incubated with 1.1 µl PREX-in1 or EHop-016 for 30 min at 30°C, or were mock treated with 1.1 µl vehicle (15% DMSO). 5 μl of the P-Rex1 DHPH / inhibitor mix was then added to 10 µl of a 1.5x reaction mix containing 225 nM bacteria-derived EE-Rac1, 7.5 µM mant-GTP and 15 µM GTP in exchange buffer in a 96-well plate. Final assay concentrations were 150 nM EE-Rac1, 100 nM P-Rex1 DHPH domain, 5 μM mant-GTP, 10 µM GTP, […] fatty-acid-free BSA, 1% DMSO, and the indicated concentrations of inhibitor. Mant-GTP fluorescence was measured in real time in a PHERAstar 384-well fluorescence plate reader at 25°C for 40 min using 360 nm excitation and 440 nm emission.

[6] = system: Rac-dependent cell responses; parameters: method as in PMID 22383527; conditions: lamellipodia formation and migration; cited from earlier work
[7] = system: DOCK2; parameters: method as in PMID 22520755; conditions: cited from earlier work

T1 sequence (Q8TCU6 whole entry, the tested form may be a part): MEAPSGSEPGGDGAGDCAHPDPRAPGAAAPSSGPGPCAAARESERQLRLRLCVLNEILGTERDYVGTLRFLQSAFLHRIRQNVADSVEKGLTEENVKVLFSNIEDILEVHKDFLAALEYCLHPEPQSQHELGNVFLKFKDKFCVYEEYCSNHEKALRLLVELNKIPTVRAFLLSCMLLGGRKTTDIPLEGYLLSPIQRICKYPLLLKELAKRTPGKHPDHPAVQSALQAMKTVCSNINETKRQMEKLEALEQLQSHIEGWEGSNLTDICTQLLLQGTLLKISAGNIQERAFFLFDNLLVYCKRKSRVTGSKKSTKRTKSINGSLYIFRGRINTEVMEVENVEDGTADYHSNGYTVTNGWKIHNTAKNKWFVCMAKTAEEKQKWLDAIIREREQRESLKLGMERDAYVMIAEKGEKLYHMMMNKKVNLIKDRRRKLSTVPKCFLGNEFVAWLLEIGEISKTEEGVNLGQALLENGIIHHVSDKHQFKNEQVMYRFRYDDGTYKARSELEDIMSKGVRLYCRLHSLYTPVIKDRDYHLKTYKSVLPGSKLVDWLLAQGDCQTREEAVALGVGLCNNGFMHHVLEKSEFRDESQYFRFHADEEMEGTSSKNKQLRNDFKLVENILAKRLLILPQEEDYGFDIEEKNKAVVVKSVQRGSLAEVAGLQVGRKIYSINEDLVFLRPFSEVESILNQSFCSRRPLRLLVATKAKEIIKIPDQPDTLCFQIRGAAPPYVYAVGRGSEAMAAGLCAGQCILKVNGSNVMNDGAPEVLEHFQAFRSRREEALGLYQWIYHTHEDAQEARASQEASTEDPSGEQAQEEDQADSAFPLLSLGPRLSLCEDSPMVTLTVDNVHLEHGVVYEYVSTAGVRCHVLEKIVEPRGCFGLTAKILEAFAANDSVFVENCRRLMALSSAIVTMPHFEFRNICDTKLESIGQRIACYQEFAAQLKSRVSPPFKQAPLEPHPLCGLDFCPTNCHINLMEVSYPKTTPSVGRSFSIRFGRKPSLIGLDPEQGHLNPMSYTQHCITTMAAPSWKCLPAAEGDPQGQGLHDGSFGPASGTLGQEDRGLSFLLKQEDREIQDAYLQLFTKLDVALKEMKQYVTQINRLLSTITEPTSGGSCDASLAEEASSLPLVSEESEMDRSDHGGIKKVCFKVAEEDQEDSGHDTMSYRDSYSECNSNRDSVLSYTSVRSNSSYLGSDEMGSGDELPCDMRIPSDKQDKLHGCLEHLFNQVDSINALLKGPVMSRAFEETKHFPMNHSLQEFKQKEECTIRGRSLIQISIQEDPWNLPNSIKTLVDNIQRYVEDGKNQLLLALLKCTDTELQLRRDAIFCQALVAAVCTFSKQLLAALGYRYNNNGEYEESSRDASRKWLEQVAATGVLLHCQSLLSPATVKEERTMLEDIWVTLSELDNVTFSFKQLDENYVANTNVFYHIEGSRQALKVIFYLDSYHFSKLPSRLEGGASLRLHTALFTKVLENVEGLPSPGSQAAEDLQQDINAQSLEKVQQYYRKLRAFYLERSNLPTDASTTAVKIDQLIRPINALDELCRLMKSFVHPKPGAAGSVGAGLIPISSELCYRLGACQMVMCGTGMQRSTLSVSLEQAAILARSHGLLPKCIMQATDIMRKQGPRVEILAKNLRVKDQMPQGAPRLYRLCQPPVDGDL

SMILES: CCN(CC)CCCC(C)Nc1nc(C)cc(Nc2ccc3nc(C)cc(N)c3c2)n1 (stereo not shown) [NSC23766, reference compound]
- effect on PIP3-stimulated Rac-GEF activity of full-length P-Rex1 [1]: did not appear to inhibit
- cell death (sub-G1 phase) [2]: caused cell death to a similar extent
- pIC50 [3]: ~4.30
- pIC50 [4]: ~4.30

SMILES: CCn1c2ccccc2c2cc(Nc3ccnc(NCCCN4CCOCC4)n3)ccc21 [EHop-016, reference compound]
- effect on P-Rex1 DHPH-dependent mant-GTP loading of Rac1 [5]: did not affect
- IC50 for blocking Rac-dependent cell responses [6]: low micromolar

SMILES: O=C1NN(c2ccccc2)C(=O)/C1=C/C=C/c1ccccc1Cl [CPYPP]
- pIC50 [7]: 4.64

From article PMC9645260, “Small-molecule inhibitors of P-Rex guanine-nucleotide exchange factors” (Small GTPases, 2022)
